How the values were obtained:
[1] = system: Rat Gastric Mucosa Ulcer; test: Side effects of causing rat gastric mucosa ulcer; conditions: four successive days
[2] = system: Dimethylbenzene Induced Mouse Ear Swelling; test: Dimethylbenzene induced mouse ear swelling
Text: Divide the mice randomly into five groups, with each team consisting of ten mice. […] Dimethylbenzene was used to induce ear swelling of the mice.

[3] = system: Adjuvant Induced Rat Foot Swelling; test: Adjuvant induced rat foot swelling (primary and secondary inflammation); type: in vivo
[4] = system: Carrageenan Induced Rat Foot Swelling; test: Carrageenan induced rat foot swelling; type: in vivo
Text: Divide the rats randomly into five groups, with each group consisting of ten rats. […] Use carrageenan induced inflammation to cause rat plantar swelling.

[5] = system: Body Twist Reaction Induced by Acetic Acid; test: Acetic acid induced body twist reaction (chemical stimuli induced pain); conditions: mouse

## Cc1cnc(NC(=O)C2=C(O)c3sc(Cl)cc3S(=O)(=O)N2C)s1 [Example 1, 6-chlorine-4-hydroxy-2-methyl-N-[2′-(5′-methyl)thiazolyl]-2H-thieno-[2,3-e]-1,2-thiazine-3-formamide-1,1-dioxide]
[1]; 1 mg/kg oral
  Ulcer Occurring Rate: 0%
[1]; 2 mg/kg oral
  Ulcer Occurring Rate: 30%
[1]; 4 mg/kg oral
  Ulcer Occurring Rate: 80%
[2]; 2 mg/kg oral
  Rate of Ear Swelling (x ± s): 0.56 ± 0.35
  inhibition rate (ear swelling): 56%
[2]; 4 mg/kg oral
  Rate of Ear Swelling (x ± s): 0.67 ± 0.43
  inhibition rate (ear swelling): 67%
[2]; 8 mg/kg oral
  Rate of Ear Swelling (x ± s): 0.81 ± 0.26
  inhibition rate (ear swelling): 81%
[3]; 1.0 mg/kg oral, 18 hours
  Rate of the Change in the Volume of Left and Right Feet after Giving Adjuvant: 0.77 ± 0.28
[3]; 1.0 mg/kg oral, 24 hours
  Rate of the Change in the Volume of Left and Right Feet after Giving Adjuvant: 0.75 ± 0.24
[3]; 1.0 mg/kg oral, 3 days
  Rate of the Change in the Volume of Left and Right Feet after Giving Adjuvant: 0.74 ± 0.28
[3]; 1.0 mg/kg oral, 8 days
  Rate of the Change in the Volume of Left and Right Feet after Giving Adjuvant: 0.75 ± 0.29
[3]; 1.0 mg/kg oral, 19 days
  Rate of the Change in the Volume of Left and Right Feet after Giving Adjuvant: 0.97 ± 0.19
[3]; 2.0 mg/kg oral, 18 hours
  Rate of the Change in the Volume of Left and Right Feet after Giving Adjuvant: 0.62 ± 0.10
[3]; 2.0 mg/kg oral, 24 hours
  Rate of the Change in the Volume of Left and Right Feet after Giving Adjuvant: 0.60 ± 0.10
[3]; 2.0 mg/kg oral, 3 days
  Rate of the Change in the Volume of Left and Right Feet after Giving Adjuvant: 0.61 ± 0.13
[3]; 2.0 mg/kg oral, 8 days
  Rate of the Change in the Volume of Left and Right Feet after Giving Adjuvant: 0.60 ± 0.14
[3]; 2.0 mg/kg oral, 19 days
  Rate of the Change in the Volume of Left and Right Feet after Giving Adjuvant: 0.69 ± 1.10
[3]; 4.0 mg/kg oral, 18 hours
  Rate of the Change in the Volume of Left and Right Feet after Giving Adjuvant: 0.65 ± 0.08
[3]; 4.0 mg/kg oral, 24 hours
  Rate of the Change in the Volume of Left and Right Feet after Giving Adjuvant: 0.65 ± 0.12
[3]; 4.0 mg/kg oral, 3 days
  Rate of the Change in the Volume of Left and Right Feet after Giving Adjuvant: 0.53 ± 0.13
[3]; 4.0 mg/kg oral, 8 days
  Rate of the Change in the Volume of Left and Right Feet after Giving Adjuvant: 0.63 ± 0.16
[3]; 4.0 mg/kg oral, 19 days
  Rate of the Change in the Volume of Left and Right Feet after Giving Adjuvant: 0.72 ± 1.12
[3]; 1, 2, 4 mg/kg oral
  inhibition of the primary and secondary inflammation induced by adjuvant: dosage dependent inhibition
[4]; 1.0 mg/kg, five hours
  Change in the Foot Volume after Giving the Carrageenan: 0.83 ± 0.28
[4]; 1.0 mg/kg, four hours
  Change in the Foot Volume after Giving the Carrageenan: 0.76 ± 0.28
[4]; 1.0 mg/kg, one hour
  Change in the Foot Volume after Giving the Carrageenan: 0.25 ± 0.15
[4]; 1.0 mg/kg, six hours
  Change in the Foot Volume after Giving the Carrageenan: 0.83 ± 0.25
[4]; 1.0 mg/kg, three hours
  Change in the Foot Volume after Giving the Carrageenan: 0.66 ± 0.34
[4]; 1.0 mg/kg, two hours
  Change in the Foot Volume after Giving the Carrageenan: 0.56 ± 0.27
[4]; 2.0 mg/kg, five hours
  Change in the Foot Volume after Giving the Carrageenan: 0.79 ± 0.25
[4]; 2.0 mg/kg, four hours
  Change in the Foot Volume after Giving the Carrageenan: 0.70 ± 0.25
[4]; 2.0 mg/kg, one hour
  Change in the Foot Volume after Giving the Carrageenan: 0.24 ± 0.11
[4]; 2.0 mg/kg, six hours
  Change in the Foot Volume after Giving the Carrageenan: 0.80 ± 0.21
[4]; 2.0 mg/kg, three hours
  Change in the Foot Volume after Giving the Carrageenan: 0.63 ± 0.54
[4]; 2.0 mg/kg, two hours
  Change in the Foot Volume after Giving the Carrageenan: 0.39 ± 0.17
[4]; 4.0 mg/kg, five hours
  Change in the Foot Volume after Giving the Carrageenan: 0.60 ± 0.31
[4]; 4.0 mg/kg, four hours
  Change in the Foot Volume after Giving the Carrageenan: 0.59 ± 0.30
[4]; 4.0 mg/kg, one hour
  Change in the Foot Volume after Giving the Carrageenan: 0.29 ± 0.20
[4]; 4.0 mg/kg, six hours
  Change in the Foot Volume after Giving the Carrageenan: 0.64 ± 0.24
[4]; 4.0 mg/kg, three hours
  Change in the Foot Volume after Giving the Carrageenan: 0.50 ± 0.20
[4]; 4.0 mg/kg, two hours
  Change in the Foot Volume after Giving the Carrageenan: 0.37 ± 0.22
[4]; 1, 2, 4 mg/kg vs Meloxicam 4 mg/kg
  effectiveness on carrageenan induced plantar swelling compared with Meloxicam: substantially more effective than the positive medicine Meloxicam
[5]; 2.0 mg/kg oral
  Numbers of Occurrence of Body Twist (x ± s): 14.78 ± 6.38
  Percentage of Body Twist: 90%
[5]; 4.0 mg/kg oral
  Numbers of Occurrence of Body Twist (x ± s): 10.78 ± 8.15
  Percentage of Body Twist: 80%
[5]; 8.0 mg/kg oral
  Numbers of Occurrence of Body Twist (x ± s): 2.78 ± 3.49
  Percentage of Body Twist: 60%

## Cc1cnc(NC(=O)C2=C(O)c3ccccc3S(=O)(=O)N2C)s1 [Meloxicam, reference compound]
[2]; 8 mg/kg oral
  Rate of Ear Swelling (x ± s): 0.43 ± 0.36
  inhibition rate (ear swelling): 43%
[5]; 8.0 mg/kg oral
  Numbers of Occurrence of Body Twist (x ± s): 18.11 ± 14.37
  Percentage of Body Twist: 100%

— patent US7125868B2, “Thienothiazine compound having anti-inflammatory and analgesic properties and method of making and using the same” (priority 2001, dated 2006)
